Assay results taken from the supplement of paper PMC10307832.

Columns and labels:
Test in all cases: relative viability (nuclei count vs DMSO), 5 days (fraction); higher = more cells survive
Dinaciclib + Foretinib = compound: CCc1cnn2c(NCc3ccc[n+]([O-])c3)cc(N3CCCC[C@H]3CCO)nc12 [Dinaciclib] + COc1cc2c(Oc3ccc(NC(=O)C4(C(=O)Nc5ccc(F)cc5)CC4)cc3F)ccnc2cc1OCCCN1CCOCC1 [Foretinib] (partner 0.25 µM)
Outline: (§1)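 Relative viability is defined as nuclei in treated wells over nuclei in vehicle wells. Duplicate plates were run and medians reported. Lung cancer cell lines in 1536-well plates were dosed by pin tool one day after seeding, with one drug or with a fixed anchor-drug dose plus five library-drug doses (not always all listed) in √10 steps, and nuclei were counted after 5 days.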

Dinaciclib + Linsitinib = compound: CCc1cnn2c(NCc3ccc[n+]([O-])c3)cc(N3CCCC[C@H]3CCO)nc12 [Dinaciclib] + C[C@]1(O)C[C@@H](c2nc(-c3ccc4ccc(-c5ccccc5)nc4c3)c3c(N)nccn32)C1 [Linsitinib] (partner 1 µM)
Outline: as §1

Dinaciclib + Phenformin = compound: CCc1cnn2c(NCc3ccc[n+]([O-])c3)cc(N3CCCC[C@H]3CCO)nc12 [Dinaciclib] + N=C(N)NC(=N)NCCc1ccccc1 [Phenformin] (partner 250 µM)
Outline: as §1

Dinaciclib + Crizotinib = compound: CCc1cnn2c(NCc3ccc[n+]([O-])c3)cc(N3CCCC[C@H]3CCO)nc12 [Dinaciclib] + C[C@@H](Oc1cc(-c2cnn(C3CCNCC3)c2)cnc1N)c1c(Cl)ccc(F)c1Cl [Crizotinib] (partner 1 µM)
Outline: as §1

Dinaciclib = compound: CCc1cnn2c(NCc3ccc[n+]([O-])c3)cc(N3CCCC[C@H]3CCO)nc12 [Dinaciclib]
Outline: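 Five library-drug doses spaced by √10 were pinned onto vehicle-anchored 1536-well plates of lung cancer cell lines that had been kept overnight at 37 °C. Cells went 5 days without medium change, then were fixed, permeabilised and Hoechst-stained together, imaged at 4× and counted by MetaXpress. Viability is the ratio of treated-well to vehicle-well nuclei, taken as a median over plates. Plates required control CV below 25% and at least one doubling.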

Cell Line | relative viability (Dinaciclib + Foretinib; first compound 0.009487 µM) | relative viability (Dinaciclib + Foretinib; first compound 0.03 µM) | relative viability (Dinaciclib + Foretinib; first compound 0.09487 µM) | relative viability (Dinaciclib + Foretinib; first compound 0.3 µM) | relative viability (Dinaciclib + Linsitinib; first compound 0.009487 µM) | relative viability (Dinaciclib + Linsitinib; first compound 0.03 µM) | relative viability (Dinaciclib + Linsitinib; first compound 0.09487 µM) | relative viability (Dinaciclib + Linsitinib; first compound 0.3 µM) | relative viability (Dinaciclib + Phenformin; first compound 0.009487 µM) | relative viability (Dinaciclib + Phenformin; first compound 0.03 µM) | relative viability (Dinaciclib + Phenformin; first compound 0.09487 µM) | relative viability (Dinaciclib + Phenformin; first compound 0.3 µM) | relative viability (Dinaciclib + Crizotinib; first compound 0.009487 µM) | relative viability (Dinaciclib + Crizotinib; first compound 0.03 µM) | relative viability (Dinaciclib + Crizotinib; first compound 0.09487 µM) | relative viability (Dinaciclib + Crizotinib; first compound 0.3 µM) | relative viability (Dinaciclib; 0.009487 µM) | relative viability (Dinaciclib; 0.03 µM) | relative viability (Dinaciclib; 0.09487 µM) | relative viability (Dinaciclib; 0.3 µM)
NCI-H1915 | 0.731 | 0.193 | 0.124 | 0.173 | 1.06 | 0.279 | 0.136 | 0.127 | 0.295 | 0.149 | 0.13 | 0.133 | 0.706 | 0.117 | 0.103 | 0.102 | 0.69 | 0.202 | 0.159 | 0.12
PC-14 | 0.841 | 0.543 | 0.0986 | 0.0886 | 0.873 | 0.244 | 0.0973 | 0.0775 | 0.279 | 0.0631 | 0.0459 | 0.0379 | 0.651 | 0.241 | 0.0877 | 0.0668 | 0.766 | 0.163 | 0.0662 | 0.0529
SK-LU-1 | 0.579 | 0.158 | 0.139 | 0.121 | 0.859 | 0.218 | 0.165 | 0.221 | 0.394 | 0.11 | 0.133 | 0.129 | 0.602 | 0.207 | 0.19 | 0.204 | 1.09 | 0.227 | 0.192 | 0.196
NCI-H1437 | 1.06 | 0.564 | 0.184 | 0.15 | 0.839 | 0.112 | 0.0939 | 0.0919 | 0.279 | 0.187 | 0.17 | 0.13 | 0.918 | 0.41 | 0.0916 | 0.0807 | 0.894 | 0.227 | 0.17 | 0.154
NCI-H1734 | 0.803 | 0.164 | 0.132 | 0.129 | 0.813 | 0.328 | 0.158 | 0.132 | 0.318 | 0.14 | 0.113 | 0.115 | 0.464 | 0.163 | 0.1 | 0.12 | 0.824 | 0.145 | 0.133 | 0.14
LK-2 | 1.13 | 0.267 | 0.164 | 0.142 | 0.523 | 0.127 | 0.159 | 0.117 | 0.274 | 0.142 | 0.156 | 0.125 | 0.232 | 0.202 | 0.21 | 0.18 | 0.888 | 0.193 | 0.177 | 0.151
HCC-15 | 0.652 | 0.12 | 0.109 | 0.107 | 0.76 | 0.171 | 0.113 | 0.101 | 0.352 | 0.115 | 0.107 | 0.103 | 0.618 | 0.098 | 0.0953 | 0.0947 | 0.772 | 0.154 | 0.114 | 0.114
HCC-366 | 0.851 | 0.0324 | 0.042 | 0.0348 | 0.543 | 0.0298 | 0.0149 | 0.0167 | 0.593 | 0.137 | 0.03 | 0.0292 | 0.358 | 0.0242 | 0.0111 | 0.0131 | 1.01 | 0.107 | 0.0385 | 0.0363
NCI-H650 | 1.02 | 0.182 | 0.165 | 0.142 | 0.481 | 0.161 | 0.139 | 0.124 | 0.407 | 0.201 | 0.159 | 0.154 | 0.638 | 0.152 | 0.131 | 0.135 | 0.874 | 0.21 | 0.159 | 0.137
NCI-H2347 | 0.824 | 0.248 | 0.298 | 0.261 | 1.03 | 0.355 | 0.273 | 0.266 | 0.468 | 0.131 | 0.193 | 0.209 | 0.734 | 0.146 | 0.202 | 0.156 | 1.01 | 0.538 | 0.257 | 0.214
LXF-289 | 1.03 | 0.706 | 0.0732 | 0.0742 | 0.994 | 0.315 | 0.0869 | 0.071 | 0.538 | 0.229 | 0.0748 | 0.0626 | 0.754 | 0.274 | 0.0748 | 0.0784 | 1.07 | 0.924 | 0.134 | 0.101
BEN | 0.866 | 0.845 | 0.153 | 0.176 | 1.01 | 0.68 | 0.216 | 0.21 | 0.235 | 0.217 | 0.174 | 0.209 | 1 | 0.512 | 0.18 | 0.215 | 1.06 | 0.812 | 0.214 | 0.257
NCI-H2023 | 0.948 | 0.0806 | 0.0663 | 0.0474 | 0.442 | 0.0999 | 0.0724 | 0.0763 | 0.384 | 0.0797 | 0.0696 | 0.0629 | 0.93 | 0.0702 | 0.05 | 0.0622 | 0.706 | 0.0772 | 0.0615 | 0.0696
NCI-H661 | 0.851 | 0.213 | 0.202 | 0.199 | 0.452 | 0.184 | 0.144 | 0.2 | 0.192 | 0.209 | 0.185 | 0.185 | 1.02 | 0.474 | 0.145 | 0.166 | 1.03 | 0.246 | 0.201 | 0.19
NCI-H1355 | 1.12 | 0.268 | 0.148 | 0.166 | 0.899 | 0.635 | 0.151 | 0.132 | 0.502 | 0.319 | 0.183 | 0.184 | 1.17 | 0.762 | 0.185 | 0.141 | 1.08 | 0.681 | 0.214 | 0.151
